Molecules are shown by their SMILES.

Test [1] relates to wt-REC-1 mantle cell lymphoma cells. Kind of test: Cell proliferation assay wt-REC-1 (ATPlite, 72 hours). The note with it: 72 h; read-out: IC50 wt-REC-1. The class given is cell-based. On the procedure:
Results of the BTK […] binding affinity are shown in Table 1 below. • IC50 BTK […]: […] wt-REC-1 mantle cell lymphoma cells were purchased from American Type Culture Collection via Synthego Corporation (cat. no. CRL-3004, ATCC). […] Luminescence was recorded on an Envision multimode reader. The cell signal at the start of incubation was recorded separately in order to distinguish between cell population growth and cell death. In addition, maximum growth was determined by incubation of a duplicate without compound in the presence of 0.3% DMSO. Percentage growth was used as the main y-axis signal. IC50s were fitted by non-linear regression using IDBS XLfitTM5 using a 4-parameter logistic curve, yielding a maximum signal, minimum signal, hill-parameter and IC50. Results of the wt-REC-1 proliferation are shown in Table 1 below. • IC50 wt-REC-1: […]

The target of test [2] is full-length wt-BTK enzyme (Homo sapiens (Human), UniProt Q06187). Kind of test: Biochemical kinase assay wt-BTK (IMAP). On the procedure: Biochemical kinase assay wt-BTK To determine the inhibitory activity of compounds on wt-BTK enzyme activity, the IMAP® assay (Molecular Devices) was used. […] After pre-incubation of 1 hour in the dark at room temperature, fluorescein-labeled MBP-derived substrate peptide (Molecular Devices, cat. no. RP 7123) was added, followed by ATP to start the reaction. Final enzyme concentration was 1.2 nM, final substrate concentration 50 nM, and final ATP concentration was 4 μM. The reaction was allowed to proceed for 2 hours at room temperature in the dark. The reaction was stopped by quenching with IMAP progressive binding solution according to the protocol of the manufacturer (Molecular Devices). Fluorescein polarization was measured on an Envision multimode reader (Perkin Elmer, Waltham, MA, U.S.A.). […] Results of the wt-BTK binding affinity are shown in Table 1 below. • IC50 wt-BTK: […]
Sequence of full-length wt-BTK enzyme (Q06187 whole entry): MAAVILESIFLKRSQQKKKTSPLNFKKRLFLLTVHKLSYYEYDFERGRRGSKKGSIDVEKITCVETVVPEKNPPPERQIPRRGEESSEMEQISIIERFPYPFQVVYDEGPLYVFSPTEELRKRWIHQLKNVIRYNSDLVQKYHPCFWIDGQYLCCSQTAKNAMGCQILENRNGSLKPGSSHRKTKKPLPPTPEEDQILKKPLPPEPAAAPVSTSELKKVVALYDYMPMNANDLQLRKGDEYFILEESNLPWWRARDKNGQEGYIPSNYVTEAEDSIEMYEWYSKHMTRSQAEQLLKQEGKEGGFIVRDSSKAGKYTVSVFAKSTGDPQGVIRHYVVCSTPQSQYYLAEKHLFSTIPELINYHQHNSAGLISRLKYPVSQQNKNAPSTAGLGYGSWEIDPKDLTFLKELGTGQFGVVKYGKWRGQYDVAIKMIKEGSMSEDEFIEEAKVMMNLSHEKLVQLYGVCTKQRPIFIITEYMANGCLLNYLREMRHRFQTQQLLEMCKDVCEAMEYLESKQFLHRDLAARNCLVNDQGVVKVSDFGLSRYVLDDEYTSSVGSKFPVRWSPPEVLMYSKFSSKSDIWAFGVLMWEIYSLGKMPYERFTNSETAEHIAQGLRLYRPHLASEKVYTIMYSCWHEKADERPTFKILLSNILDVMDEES

In test [3] the target is full-length BTK C481S enzyme (Homo sapiens (Human), UniProt Q06187, C481S). As to the kind of experiment: Biochemical kinase assay BTK C481S (IMAP). On the procedure:
Biochemical kinase assay BTK […] To determine the inhibitory activity of compounds on BTK C481S enzyme activity, the IMAP® assay (Molecular Devices) was used. […] After pre-incubation of 1 hour in the dark at room temperature, fluorescein-labeled MBP-derived substrate peptide (Molecular Devices, cat. no. RP 7123) was added, followed by ATP to start the reaction. Final enzyme concentration was 1.2 nM final substrate concentration 50 nM, and final ATP concentration was 7 μM. The reaction was allowed to proceed for 2 hours at room temperature in the dark. The reaction was stopped by quenching with IMAP progressive binding solution according to the protocol of the manufacturer (Molecular Devices). Fluorescein polarization was measured on an Envision multimode reader (Perkin Elmer, Waltham, MA, U.S.A.). IC50 were calculated using XLfitTM5 software (ID Business Solutions, Ltd., Surrey, U.K.). Results of the BTK […] binding affinity are shown in Table 1 below. • IC50 BTK […]: […]

For another test, the system named is REC-1 T474I cell lines. Kind of test: Cell proliferation assay REC-1 BTK T474I knock-in cells (ATPlite, 72 hours). The format is cell-based. The note with it: Homo sapiens, Rec1; 72 hours; read-out: IC50 REC-1 T474I. The method, then:
Cell proliferation assay Generation of BTK […] knock-in cell lines wt-REC-1 cell lines expressing mutant BTK were created at Synthego Corporation. Cell lines expressing BTK […] was generated via CRISPR/Cas9. Monoclonal REC-1 […] cell lines were obtained by single cell cloning. The mutation status of all cell lines was confirmed via sequencing. […] Luminescence was recorded on an Envision multimode reader. The cell signal at the start of incubation was recorded separately in order to distinguish between cell population growth and cell death. In addition, maximum growth was determined by incubation of a duplicate without compound in the presence of 0.3% DMSO. Percentage growth was used as the main y-axis signal.

Sequence of full-length BTK C481S enzyme (Q06187 whole entry C481S): as the sequence (Q06187 whole entry) above, with C481S counted along it

On to `Nc1ncc2c3c1c(-c1ccc(C(=O)Nc4ccccn4)cc1)nn3[C@@H]1CCC[C@H](C1)NC(=O)CC/C=C\C2` [Example 96b], for which the IC50 in test [1] lay in the range of 1000 to 10000 nM; in test [2], 5 to 50 nM; in test [3], 5 to 50 nM; with REC-1 T474I cell lines, 500 to 10000 nM.
Take `Nc1ncc2c3c1c(-c1ccc(C(=O)Nc4cc(C(F)(F)F)ccn4)cc1)nn3[C@@H]1CCC[C@H](C1)NC(=O)COC/C=C/C2` [Example 97a]: the IC50 in test [1] was 1000 to 10000 nM; in test [2], 5 to 50 nM; in test [3], 5 to 50 nM; with REC-1 T474I cell lines, 500 to 10000 nM.
With `Nc1ncc2c3c1c(-c1ccc(C(=O)Nc4cc(C(F)(F)F)ccn4)cc1)nn3[C@@H]1CCC[C@H](C1)NC(=O)CCCC/C=C/C2` [Example 98a], the IC50 in test [1] lay in the range of 100 to 1000 nM; in test [2], 50 to 500 nM; in test [3] it was 50 to 500 nM; in the test on REC-1 T474I cell lines it was 500 to 10000 nM.
As for `Nc1ncc2c3c1c(-c1ccc(C(=O)Nc4ccccn4)cc1)nn3[C@@H]1CCC[C@H](C1)NC(=O)CCC/C=C/C2` [Example 99a], the 50% inhibitory concentration (IC50) in test [1] was in the range of 1000 to 10000 nM; in test [2], 50 to 500 nM; in test [3], 50 to 500 nM; in the test on REC-1 T474I cell lines it was 500 to 10000 nM.
`Nc1ncc2c3c1c(-c1ccc(C(=O)Nc4ccccn4)cc1)nn3[C@@H]1CCC[C@H](C1)NC(=O)CCCC/C=C/C2` [Example 100a]: the IC50 was in the range of 1000 to 10000 nM in test [1], 50 to 500 nM in test [2], 50 to 500 nM in test [3] and 500 to 10000 nM in the test on REC-1 T474I cell lines.
Turning to `Nc1ncc2c3c1c(-c1ccc(C(=O)Nc4cc(C(F)(F)F)ccn4)cc1)nn3[C@@H]1CCC[C@H](C1)NC(=O)CCCCC/C=C/C2` [Example 101a], the IC50 in test [1] fell in the range of 100 to 1000 nM; in test [2] it was 5 to 50 nM; in test [3] it was 5 to 50 nM; with REC-1 T474I cell lines it was 500 to 10000 nM.
Take `Nc1ncc2c3c1c(-c1ccc(C(=O)Nc4ccccn4)cc1)nn3[C@@H]1CCC[C@H](C1)NC(=O)CCCCC/C=C/C2` [Example 102a]: the IC50 in test [1] was below 100 nM; in test [2] it was below 5 nM; in test [3], below 5 nM; in the test with REC-1 T474I cell lines it was below 100 nM.
For `Nc1ncc2c3c1c(-c1ccc(C(=O)Nc4cc(C(F)(F)F)ccn4)cc1)nn3[C@@H]1CCC[C@H](C1)NC(=O)CCCCCC/C=C/C2` [Example 103a], the IC50 in test [1] is 100 to 1000 nM; in test [2], below 5 nM; in test [3] it was below 5 nM; in the test on REC-1 T474I cell lines, 100 to 500 nM.
With `Nc1ncc2c3c1c(-c1ccc(C(=O)Nc4ccccn4)cc1)nn3[C@@H]1CCC[C@H](C1)NC(=O)COC/C=C/C2` [Example 104a], the IC50 in test [1] fell in the range of 1000 to 10000 nM; in test [2], 50 to 500 nM; in test [3], 50 to 500 nM; with REC-1 T474I cell lines, 500 to 10000 nM.
Regarding `Nc1ncc2c3c1c(-c1ccc(C(=O)Nc4cc(C(F)(F)F)ccn4)cc1)nn3[C@@H]1CCC[C@H](C1)NC(=O)CCNC/C=C/C2` [Example 106], the IC50 lay within 1000 to 10000 nM in test [1], 5 to 50 nM in test [2], 5 to 50 nM in test [3] and 500 to 10000 nM with REC-1 T474I cell lines.
Take `Nc1ncc2c3c1c(-c1ccc(C(=O)Nc4cc(C(F)(F)F)ccn4)cc1)nn3[C@@H]1CCC[C@H](C1)NC(=O)CCCNC/C=C/C2` [Example 107]: the IC50 was in the range of 1000 to 10000 nM in test [1], 5 to 50 nM in test [2], 5 to 50 nM in test [3] and 500 to 10000 nM in the test on REC-1 T474I cell lines.
For the compound `Nc1ncc2c3c1c(-c1ccc(C(=O)Nc4cc(C(F)(F)F)ccn4)cc1)nn3[C@@H]1CCC[C@H](C1)NC(=O)CCCNC/C=C\C2` [Example 108], the IC50 in test [1] is 100 to 1000 nM; in test [2], below 5 nM; in test [3] it was below 5 nM; with REC-1 T474I cell lines it was 500 to 10000 nM.
In the case of `C[C@@H]1CCn2nc(-c3ccc(C(=O)Nc4cc(C(F)(F)F)ccn4)cc3)c3c(N)ncc(c32)C/C=C\CCCC(=O)N1` [Example 109a], the IC50 is 100 to 1000 nM in test [1], 5 to 50 nM in test [2], 5 to 50 nM in test [3] and 500 to 10000 nM in the test with REC-1 T474I cell lines.
Regarding `C[C@@H]1CCn2nc(-c3ccc(C(=O)Nc4cc(C(F)(F)F)ccn4)cc3)c3c(N)ncc(c32)C/C=C/CCCC(=O)N1` [Example 109b], the IC50 in test [1] fell in the range of 1000 to 10000 nM; in test [2], 50 to 500 nM; in test [3], 50 to 500 nM; in the test on REC-1 T474I cell lines, 500 to 10000 nM.
For `C[C@@H]1CCn2nc(-c3ccc(C(=O)Nc4cc(C(F)(F)F)ccn4)cc3)c3c(N)ncc(c32)CC=CCCCCC(=O)N1` [Example 110], the IC50 in test [1] was in the range of 100 to 1000 nM; in test [2], 5 to 50 nM; in test [3] it was 5 to 50 nM; in the test with REC-1 T474I cell lines, 500 to 10000 nM.
Regarding `C[C@@H]1CCn2nc(-c3ccc(C(=O)Nc4cc(C(F)(F)F)ccn4)cc3)c3c(N)ncc(c32)CC=CCCCCCC(=O)N1` [Example 111], the IC50 in test [1] lay in the range of 1000 to 10000 nM; in test [2] it was 5 to 50 nM; in test [3], 5 to 50 nM; in the test on REC-1 T474I cell lines, 500 to 10000 nM.
Regarding `Nc1ncc2c3c1c(-c1ccc(C(=O)Nc4cc(C(F)(F)F)ccn4)cc1)nn3[C@@H]1CCC[C@H](C1)NC(=O)CCNCCCC2` [Example 112], the IC50 in test [1] is 100 to 1000 nM; in test [2], below 5 nM; in test [3] it was below 5 nM; in the test with REC-1 T474I cell lines, 100 to 500 nM.
Consider `C[C@@H]1CCn2nc(-c3ccc(C(=O)Nc4cc(C(F)(F)F)ccn4)cc3)c3c(N)ncc(c32)CCCO[C@H](C)C(=O)N1` [Example 113], for which the IC50 in test [1] is 1000 to 10000 nM; in test [2], 5 to 50 nM; in test [3], 5 to 50 nM; in the test on REC-1 T474I cell lines, 500 to 10000 nM.
For `Nc1ncc2c3c1c(-c1ccc(C(=O)Nc4cc(C(F)(F)F)ccn4)cc1)nn3[C@@H]1CCC[C@H](C1)C(=O)NCCCCC2` [Example 116], the IC50 in test [1] was in the range of 1000 to 10000 nM; in test [2] it was 50 to 500 nM; in test [3], 50 to 500 nM; with REC-1 T474I cell lines it was 500 to 10000 nM.
With `Nc1ncc2c3c1c(-c1ccc(C(=O)Nc4cc(C(F)(F)F)ccn4)cc1)nn3[C@@H]1CCC[C@H](C1)C(=O)NCCCCCC2` [Example 117], the IC50 is 100 to 1000 nM in test [1], 5 to 50 nM in test [2], below 5 nM in test [3] and 500 to 10000 nM in the test with REC-1 T474I cell lines.
Taken in the same sequence, the figures for `Nc1ncc2c3c1c(-c1ccc(C(=O)Nc4cc(C(F)(F)F)ccn4)cc1)nn3[C@@H]1CCC[C@H](C1)C(=O)NCCCCCCCCC2` [Example 120] were 100 to 1000 nM, 5 to 50 nM, 5 to 50 nM and 500 to 10000 nM.
As to `C[C@@H]1CCn2nc(-c3ccc(C(=O)Nc4cc(C(F)(F)F)ccn4)cc3)c3c(N)ncc(c32)CCCCCCC(=O)N1` [Example 121], the IC50 is 100 to 1000 nM in test [1], 5 to 50 nM in test [2], below 5 nM in test [3] and 500 to 10000 nM in the test on REC-1 T474I cell lines.
Taken in the same sequence, the figures for `C[C@@H]1CCn2nc(-c3ccc(C(=O)Nc4cc(C(F)(F)F)ccn4)cc3)c3c(N)ncc(c32)CCCOCC(=O)N1` [Example 122] were 100 to 1000 nM, 5 to 50 nM, 5 to 50 nM and 500 to 10000 nM.
Regarding `Nc1ncc2c3c1c(-c1ccc(C(=O)Nc4ccccn4)cc1)nn3[C@@H]1CCC[C@H](C1)NC(=O)CCCCC2` [Example 124], the IC50 was 100 to 1000 nM in test [1], 50 to 500 nM in test [2], 50 to 500 nM in test [3] and 500 to 10000 nM with REC-1 T474I cell lines.
On to `Nc1ncc2c3c1c(-c1ccc(C(=O)Nc4ccccn4)cc1)nn3[C@@H]1CCC[C@H](C1)NC(=O)CCCCCC2` [Example 125], for which the IC50 in test [1] is 100 to 1000 nM; in test [2], 5 to 50 nM; in test [3] it was 5 to 50 nM; in the test on REC-1 T474I cell lines, 500 to 10000 nM.

(Values after patent US20250074911A1, “MACROCYCLIC BTK INHIBITORS” (Crossfire Oncology Holding B.V., priority 2021, published 2025).)
